Measurements as given in patent publication US20240316042A1 (AbbVie Inc., priority 2023, published 2024).
In brackets after ≈: the same amount, converted by molar mass. Like-named read-outs stand apart in the source and are kept apart here.

What was measured:
[1] = test system: pediatric patients with pcJIA; assay: Phase 1 open-label study in pediatric pcJIA patients: safety (adverse events)
Protocol: (§1) Part 1 was a multiple-dose, open-label, multiple-cohort study. Two sequential multiple-ascending dose levels (Low Dose and High Dose levels) were evaluated in the 12 to <18 years age group (Group 1), and one dose level (Low Dose) was evaluated in the two younger age groups (Group 2: 6 to <12 years, and Group 3: 2 to <6 years). Low Dose and High Dose cohorts in age group 1 enrolled 9 subjects each.
(§2) The study enrolled at least 10 subjects below 30 kg. Recruitment of subjects was conducted through a staggered approach based on age. […] Part 3 was an additional safety cohort. […] Part 3 was open to age groups in which Part I enrollment was completed. […] Doses were adjusted during the study for any of the body weight categories after review of results from the subjects who completed Study Part 1.
This was an interim analysis.
(§3) This interim analysis includes all available pharmacokinetic and safety data and efficacy data collected through Week 48, excluding patients enrolled in the long-term safety cohort.

[2] = test system: pediatric subjects with severe atopic dermatitis; assay: Phase 1 open-label study in pediatric subjects with severe atopic dermatitis: efficacy (vIGA-AD, EASI); format: in vivo, human; conditions: Week 12 (as observed)
Protocol: (§4) This was an open-label, multiple-dose study. AD patients (N=35) were enrolled into four cohorts (Cohort 1, 6 to <12 years with low dose; Cohort 2, 6 to <12 years with high dose; Cohort 3, 2 to <6 years with low dose; Cohort 4, 2 to <6 years with high dose). […] PK was evaluated on Day 7 post first dose. Safety was evaluated throughout the study. Exploratory efficacy parameters were collected at specified timepoints.
During Part 2 of the study, concomitant topical medications for AD were allowed during the study per investigator discretion.
No formal statistical comparisons were planned.

[3] = Phase 1 open-label study in pediatric pcJIA patients: pharmacokinetics at steady state (Day 7); format: in vivo, human; conditions: for AUC / half-life: human, plasma, oral; for AUC / half-life / AUC0-24, geometric mean / CLss/F, geometric mean / CLss/F_adjusted (adjusted for bioavailability), geometric mean: Day 7; for AUC: read-out: AUCtau, geometric mean; for half-life: read-out: Functional t1/2, harmonic mean (converted)
Protocol: as §1, §2
In Part 1, the dose was administered according to three body weight categories. Subjects were categorized based on age group, and the dose administered for seven consecutive days will be based on three different body weight categories per dose level shown in Table 2.
Patients (N=51) diagnosed with pcJIA were enrolled into one of four groups in an open-label, multiple-dose study (Group 1, 12 to <18 years, low dose; Group 2, 12 to <18 years, high dose; Group 3, 6 to <12 years, low dose; Group 4, 2 to <6 years, low dose). […] Pharmacokinetic assessment was performed at steady state on Study Day 7, after which all patients might continue the study with low dose.

[4] = Phase 1 open-label study in pediatric subjects with severe atopic dermatitis: pharmacokinetics on Day 7; format: in vivo, human; conditions: for half-life / Cmax: human, plasma, oral; for half-life: read-out: t1/2, harmonic mean (pseudo standard deviation) (converted)
Protocol: as §4
(§5) Part 1 was a multiple-dose, open-label, multiple-cohort study that consisted of two sequential multiple-ascending dose groups (Low Dose and High Dose levels) in the two age groups. (Group 1: 6 to <12 years and Group 2: 2 to <6 years).
There was one additional subject who was enrolled in Cohort 3 but withdrew informed consent before PK assessment. This subject was therefore not included in PK analyses.

[5] = Population pharmacokinetic analyses of upadacitinib exposure in adults / adult RA patients; conditions: for median average plasma exposure over a dosing interval: adult RA patients; for AUC0-24 at steady state, model-estimated: adults
Protocol: In Part 1, the dose was administered according to three body weight categories.
The doses selected for this study account for the difference in oral bioavailability between the extended-release tablet formulation and the oral solution. […] Doses were adjusted during the study for any of the body weight categories after review of results from the subjects who completed Part 1.

[6] = test system: pediatric patients with pcJIA; assay: Phase 1 open-label study in pediatric pcJIA patients: efficacy (JIA ACR, JADAS-27, C-HAQ);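 note: values come from an interim analysis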
Protocol: Based on these parameters, the following composite efficacy endpoints were evaluated: • JIA ACR pediatric 30/50/70/90/100 responses • Change from Baseline in JADAS10/27/71 responses, as well as JADAS-based criteria for low disease activity and remission (if deemed useful and appropriate).
This was an interim analysis.
as §3

[7] = Solubility of upadacitinib in different aqueous media at 37° C.; format: physicochemical; conditions: 50 mM carbonate buffer, pH 9.11
Description: For pediatric use, an oral solution was developed to improve acceptability (palatability and swallowability), stability, and manufacturability. […] Thus, low pH buffers such as citrate, phosphate, tartrate, and formate are suitable to prepare the oral solution. […] Citrate buffer was selected because it has favorable pKa (˜3.1), which is close to the final pH of the oral solution.

[8] = test system: pediatric subjects with severe atopic dermatitis; assay: Phase 1 open-label study in pediatric subjects with severe atopic dermatitis: safety
Protocol: as §4, §5

[9] = Enrollment on or after protocol v4.0, N 7
[10] = Enrollment up to protocol v3.0, N 20
[11] = pcJIA Group 3: 6 to <12 years, low dose, BID solution
[12] = pcJIA Group 4: 2 to <6 years, low dose, BID solution
[13] = pcJIA Group 1: 12 to <18 years, low dose, QD tablet
[14] = pcJIA Group 2: 12 to <18 years, high dose, QD tablet
[15] = pcJIA Group 3: 6 to <12 years, low dose, QD tablet
[16] = pcJIA Group 3: 6 to <12 years, low dose, tablet and solution combined
[17] = AD Cohort 1: 6 to <12 years, Low Dose, IR Solution, Day 7
[18] = AD Cohort 2: 6 to <12 years, High Dose, ER Tablet, Day 7
[19] = AD Cohort 2: 6 to <12 years, High Dose, IR Solution, Day 7
[20] = AD Cohort 3: 2 to <6 years, Low Dose, IR Solution, Day 7
[21] = AD Cohort 4: 2 to <6 years, High Dose, IR Solution, Day 7

## CC[C@@H]1CN(C(=O)NCC(F)(F)F)C[C@@H]1c1cnc2cnc3[nH]ccc3n12 [upadacitinib, (3S,4R)-3-ethyl-4-(3H-imidazo[1,2-a]pyrrolo[2,3-e]pyrazin-8-yl)-N-(2,2,2-trifluoroethyl)pyrrolidine-1-carboxamide]
[1]; pcJIA part 1, through 7 days
  patients reporting serious AEs or AEs leading to treatment discontinuation: no patients
[1]; pcJIA part 1, through 7 days, 8 out of 51 patients
  patients reporting adverse events (AEs): 15.7%
[1]; pcJIA part 2 and part 3, 52 out of 57 patients
  patients reporting AEs: 91.2%
[1]; pcJIA part 2 and part 3, n=2/57
  AE of special interest: neutropenia: 3.5%
[1]; pcJIA part 2 and part 3, n=3/57
  AE of special interest: hepatic disorder: 5.3%
[1]; pcJIA part 2 and part 3, n=6/57
  AE of special interest: elevated creatine phosphokinase: 10.5%
[1]; pcJIA, 12 to <18 years of age group, 2 of 19
  patients reporting AEs leading to treatment discontinuation: 10.5%
[1]; pcJIA, 12 to <18 years of age group, six out of 19
  patients reporting serious AEs: 31.6%
[1]; pcJIA, during the study
  uveitis events: no uveitis events occurred
[1]; pcJIA, interim analysis
  deaths: No deaths occurred
[1]; pediatric patients with pcJIA
  overall safety and tolerability: safe and well tolerated
[2]; Age 2 to <6 years, N 12
  EASI 75, Responder: 9 (75.0) n (%)
  vIGA-AD of 0 or 1 with at least two grades of reduction from baseline, Responder: 3 (25.0) n (%)
[2]; Age 6 to <12 years, N 15
  EASI 75, Responder: 10 (66.7) n (%)
  vIGA-AD of 0 or 1 with at least two grades of reduction from baseline, Responder: 6 (40.0) n (%)
[2]; [9]
  EASI 75, Responder: 7 (100) n (%)
  vIGA-AD of 0 or 1 with at least two grades of reduction from baseline, Responder: 3 (42.9) n (%)
[2]; [10]
  EASI 75, Responder: 12 (60.0) n (%)
  vIGA-AD of 0 or 1 with at least two grades of reduction from baseline, Responder: 6 (30.0) n (%)
[2]; Overall, N 27
  EASI 75, Responder: 19 (70.4) n (%)
  vIGA-AD of 0 or 1 with at least two grades of reduction from baseline, Responder: 9 (33.3) n (%)
[3]; [11]
  AUC: 198 ng·h/mL
  half-life: 2.39 h
  CLss/F_adjusted (adjusted for bioavailability), geometric mean: 19.7 L/h
[3]; [12]
  AUC: 184 ng·h/mL
  half-life: 2.33 h
  CLss/F_adjusted (adjusted for bioavailability), geometric mean: 15.0 L/h
[3]; pcJIA Group 1 (12 to <18 years), low-dose level
  Median AUC0-24: 278 ng·h/mL
[3]; [13]
  AUC0-24, geometric mean: 269 ng·h/mL
  CLss/F, geometric mean: 55.7 L/h
  CLss/F_adjusted (adjusted for bioavailability), geometric mean: 38.1 L/h
[3]; pcJIA Group 2 (12 to <18 years), high-dose level
  Median AUC0-24: 547 ng·h/mL
[3]; [14]
  AUC0-24, geometric mean: 553 ng·h/mL
  CLss/F, geometric mean: 46.5 L/h
  CLss/F_adjusted (adjusted for bioavailability), geometric mean: 31.8 L/h
[3]; [15]
  AUC0-24, geometric mean: 318 ng·h/mL
  CLss/F, geometric mean: 41.6 L/h
  CLss/F_adjusted (adjusted for bioavailability), geometric mean: 28.5 L/h
[3]; [16]
  AUC0-24, geometric mean: 346 ng·h/mL
  CLss/F_adjusted (adjusted for bioavailability), geometric mean: 24.7 L/h
[3]; pcJIA Group 4 (2 to <6 years), low-dose level
  Median AUC0-24: 360 ng·h/mL
[3]; pcJIA patients
  apparent oral clearance in relation to bodyweight: increased in pcJIA patients with increasing bodyweight
[4]; AD Cohort 1: 6 to <12 years, Low Dose, ER Tablet, Day 7
  CLss/F, geometric mean (mean, % CV): 31.5 (34.2, 48) L/h
[4]; [17]
  CLss/F, geometric mean (mean, % CV): 19.3 (20.2, 31) L/h
  half-life: 2.35 h
[4]; [18]
  CLss/F, geometric mean (mean, % CV): 39.1 (42.3, 37) L/h
  half-life: 4.93 h
[4]; [19]
  CLss/F, geometric mean (mean, % CV): 23.0 (23.6, 27) L/h
  half-life: 1.68 h
[4]; [20]
  CLss/F, geometric mean (mean, % CV): 15.6 (18.6, 52) L/h
  half-life: 1.67 h
[4]; [21]
  CLss/F, geometric mean (mean, % CV): 20.7 (23.6, 66) L/h
  half-life: 2.25 h
[4]; AD Cohort 2: 6 to <12 years, high dose, Day 7 (Example 4), read-out: Geometric mean Cmax at steady-state
  Cmax: 95.5 ng/mL
[4]; AD Cohort 4: 2 to <6 years, High Dose, IR Solution, Day 7, read-out: Cmax, geometric mean (mean, % CV)
  Cmax: 96.9 ng/mL
[4]; AD Cohort 4: 2 to <6 years, high dose, Day 7 (Example 4), read-out: Geometric mean Cmax at steady-state
  Cmax: 101 ng/mL
[5]; 15 mg QD extended-release formulation
  median average plasma exposure over a dosing interval: 15.1 ng/mL
[5]; 30 mg QD extended-release formulation
  median average plasma exposure over a dosing interval: 30.0 ng/mL
[5]; adult patients with RA, phase 3 trials, 15 mg ER tablet daily
  Median AUC0-24 at steady state (5th, 95th percentile): 358 (234, 701) ng·h/mL
[5]; multiple 15 mg QD doses
  AUC0-24 at steady state, model-estimated: 362 ng·h/mL
[5]; multiple 30 mg QD doses
  AUC0-24 at steady state, model-estimated: 720 ng·h/mL
[6]; Week 12, Overall
  C-HAQ, Change from Baseline Mean ([…]% CI): −0.45 (−0.63, −0.27)
  C-HAQ, Change from Baseline Median (Min, Max): −0.38 (−1.9, 1.1)
  ESR, Change from Baseline Median (Min, Max): −4.0 (−41, 26) ^
  Patient/Parent Global Assessment of Overall Well Being (VAS), Change from Baseline Median (Min, Max): −26.0 (−81, 37) ^
  Physician's Global Assessment of Disease Activity (VAS), Change from Baseline Median (Min, Max): −49.0 (−100, 9) ^
  Total Number of Active Joints, Change from Baseline Median (Min, Max): −8.0 (−25, 0) ^
[6]; Week 12, age 2 to <6 years
  C-HAQ, Change from Baseline Mean ([…]% CI): −0.31 (−0.77, 0.15)
  C-HAQ, Change from Baseline Median (Min, Max): −0.38 (−1.3, 1.1)
  ESR, Change from Baseline Median (Min, Max): −7.0 (−39, 2) ^
  Patient/Parent Global Assessment of Overall Well Being (VAS), Change from Baseline Median (Min, Max): −38.0 (−81, 37) ^
  Physician's Global Assessment of Disease Activity (VAS), Change from Baseline Median (Min, Max): −49.0 (−72, −25)
  Total Number of Active Joints, Change from Baseline Median (Min, Max): −6.0 (−12, −3)
[6]; Week 12, age 6 to <12 years
  C-HAQ, Change from Baseline Mean ([…]% CI): −0.64 (−0.95, −0.34)
  C-HAQ, Change from Baseline Median (Min, Max): −0.38 (−1.9, 1.1)
  ESR, Change from Baseline Median (Min, Max): −4.0 (−41, 7) ^
  Patient/Parent Global Assessment of Overall Well Being (VAS), Change from Baseline Median (Min, Max): −29.0 (−61, 9) ^
  Physician's Global Assessment of Disease Activity (VAS), Change from Baseline Median (Min, Max): −55.0 (−100, −28)
  Total Number of Active Joints, Change from Baseline Median (Min, Max): −8.0 (−24, −4)
[6]; Week 12, age 12 to <18 years
  C-HAQ, Change from Baseline Mean ([…]% CI): −0.33 (−0.58, −0.09)
  C-HAQ, Change from Baseline Median (Min, Max): −0.31 (−1.1, 0.5)
  ESR, Change from Baseline Median (Min, Max): −2.5 (−17, 26) ^
  Patient/Parent Global Assessment of Overall Well Being (VAS), Change from Baseline Median (Min, Max): −23.0 (−45, 8) ^
  Physician's Global Assessment of Disease Activity (VAS), Change from Baseline Median (Min, Max): −41.0 (−94, 9) ^
  Total Number of Active Joints, Change from Baseline Median (Min, Max): −9.0 (−25, 0) ^
[7]
  solubility: 199 ± 6 µg/mL (≈ 523 µM)
[8]; AD Part 2, n=3
  discontinuation of upadacitinib due to adverse event: 9.7%
[8]; children with severe AD
  most common AEs: COVID infection, headache, and abdominal discomfort
  new safety risks compared to the known safety profile: No new safety risks were identified
  overall safety and tolerability: generally safe and well tolerated
